Where a SMILES comes first, the peptide text is derived from it. Bridges are numbered along the chain shown (N, C = ends). [ ]: non-standard residue; d: D form. The star is where a group is joined. Tyr(3,5-F2) = N[C@@H](Cc1cc(F)c(O)c(F)c1)C(=O)O; Phe(4-COOH) = N[C@@H](Cc1ccc(C(=O)O)cc1)C(=O)O; Tyr(3-Cl) = N[C@@H](Cc1ccc(O)c(Cl)c1)C(=O)O; Bip = N[C@@H](Cc1ccc(-c2ccccc2)cc1)C(=O)O; Phe(4-CN) = N#Cc1ccc(C[C@H](N)C(=O)O)cc1; Phe(3-Me) = Cc1cccc(C[C@H](N)C(=O)O)c1; Phe(2-F) = N[C@@H](Cc1ccccc1F)C(=O)O; Val(3-OH) = CC(C)(O)[C@H](N)C(=O)O; 4Pal = N[C@@H](Cc1ccncc1)C(=O)O; 2Thi = N[C@@H](Cc1cccs1)C(=O)O; Cha = N[C@@H](CC1CCCCC1)C(=O)O; Gly(cPr) = N[C@H](C(=O)O)C1CC1; Phg = N[C@H](C(=O)O)c1ccccc1; Carboxymethyl = O=C(O)C*; NMeA = CN[C@@H](C)C(=O)O; Aun = NCCCCCCCCCCC(=O)O; Dab = NCC[C@H](N)C(=O)O
Biological target: T1, PD-1/PD-L1 interaction (PE-labeled human PD-L1-Ig binding to Jurkat cell line over-expressing human PD-1) (Homo sapiens, UniProt Q15116)
T1 construct: expressed in transfected cells; host or cells: Jurkat
T1 sequence (Q15116 25-288): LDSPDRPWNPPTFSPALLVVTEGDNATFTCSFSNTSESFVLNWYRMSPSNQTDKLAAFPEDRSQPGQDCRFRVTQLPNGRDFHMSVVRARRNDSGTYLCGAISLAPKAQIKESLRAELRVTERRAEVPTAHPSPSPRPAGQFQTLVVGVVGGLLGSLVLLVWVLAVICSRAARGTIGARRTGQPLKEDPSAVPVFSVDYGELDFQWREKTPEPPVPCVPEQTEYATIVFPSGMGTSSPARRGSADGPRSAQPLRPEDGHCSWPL
Assay: Jurkat-PD-1 Cell Binding High-Content Screening Assay (CBA)
Conditions: Jurkat-hPD-1 cells, PE-labeled PD-L1-Ig 20 nM final; read-out: Jurkat HPD1 PDL1 IC50
Outline: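 Cells 8×10^3/well, DMEM + 10% FCS; cpd 2 h, 37 °C; PE–PD-L1-Ig 20 nM final, 1 h; PFA fix + Hoechst 33342, 3× dPBS wash; high-content imager.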

Compound | IC50 [µM]
Cc1cccc(C[C@@H]2NC(=O)[C@H](CC(=O)O)NC(=O)[C@H](Cc3ccc(OCC(=O)O)cc3)NC(=O)[C@H](Cc3ccncc3)NC(=O)CSC[C@@H](C(=O)N[C@@H](CCN)C(=O)NCCCCCCCCCCC(=O)O)NC(=O)[C@H](CO)NC(=O)[C@H](C(C)(C)O)NC(=O)[C@H](CC3CCCCC3)NC(=O)[C@H](CCN)NC(=O)[C@@H](CC(C)C)NC(=O)[C@H](C)N(C)C(=O)[C@H](Cc3ccc(OCC(=O)O)cc3)NC(=O)[C@H](Cc3ccc(-c4ccccc4)cc3)NC(=O)[C@H](Cc3ccc(OCC(=O)O)cc3)NC2=O)c1 [Example 1287] ({CH2CO}-[4Pal]Y(Carboxymethyl)D[Phe(3-Me)]Y(Carboxymethyl)[Bip]Y(Carboxymethyl)[NMeA][dL][Dab][Cha][Val(3-OH)]SC[Dab][Aun]-OH; thioether N-14) | 0.009
Cc1cccc(C[C@@H]2NC(=O)[C@H](CC(=O)O)NC(=O)[C@H](Cc3ccc(OCC(=O)O)cc3)NC(=O)[C@H](Cc3ccc(C#N)cc3)NC(=O)CSC[C@@H](C(=O)N[C@@H](CCN)C(=O)NCCCCCCCCCCC(=O)O)NC(=O)[C@H](CO)NC(=O)[C@H](C(C)(C)O)NC(=O)[C@H](CC3CCCCC3)NC(=O)[C@H](CCN)NC(=O)[C@@H](CC(C)C)NC(=O)[C@H](C)N(C)C(=O)[C@H](Cc3ccc(OCC(=O)O)cc3)NC(=O)[C@H](Cc3ccc(-c4ccccc4)cc3)NC(=O)[C@H](Cc3ccc(OCC(=O)O)cc3)NC2=O)c1 [Example 1288] ({CH2CO}-[Phe(4-CN)]Y(Carboxymethyl)D[Phe(3-Me)]Y(Carboxymethyl)[Bip]Y(Carboxymethyl)[NMeA][dL][Dab][Cha][Val(3-OH)]SC[Dab][Aun]-OH; thioether N-14) | 0.0147
Cc1cccc(C[C@@H]2NC(=O)[C@H](CC(=O)O)NC(=O)[C@H](Cc3ccc(C(=O)O)cc3)NC(=O)[C@H](CCN)NC(=O)CSC[C@@H](C(=O)N[C@@H](CCN)C(=O)NCCCCCCCCCCC(=O)O)NC(=O)[C@H](CO)NC(=O)[C@H](C(C)(C)O)NC(=O)[C@H](CC3CCCCC3)NC(=O)[C@H](CCN)NC(=O)[C@@H](CC(C)C)NC(=O)[C@H](C)N(C)C(=O)[C@H](Cc3ccc(OCC(=O)O)cc3)NC(=O)[C@H](Cc3ccc(-c4ccccc4)cc3)NC(=O)[C@H](Cc3ccccc3F)NC2=O)c1 [Example 1289] ({CH2CO}-[Dab][Phe(4-COOH)]D[Phe(3-Me)][Phe(2-F)][Bip]Y(Carboxymethyl)[NMeA][dL][Dab][Cha][Val(3-OH)]SC[Dab][Aun]-OH; thioether N-14) | 0.0324
Cc1cccc(C[C@@H]2NC(=O)[C@H](CC(=O)O)NC(=O)[C@H](Cc3ccc(C(=O)O)cc3)NC(=O)[C@H](CCN)NC(=O)CSC[C@@H](C(=O)N[C@@H](CCN)C(=O)NCCCCCCCCCCC(=O)O)NC(=O)[C@H](CO)NC(=O)[C@H](C(C)(C)O)NC(=O)[C@H](CC3CCCCC3)NC(=O)[C@H](CCN)NC(=O)[C@@H](CC(C)C)NC(=O)[C@H](C)N(C)C(=O)[C@H](Cc3ccc(OCC(=O)O)cc3)NC(=O)[C@H](Cc3ccc(-c4ccccc4)cc3)NC(=O)[C@H](Cc3cc(F)c(O)c(F)c3)NC2=O)c1 [Example 1290] ({CH2CO}-[Dab][Phe(4-COOH)]D[Phe(3-Me)][Tyr(3,5-F2)][Bip]Y(Carboxymethyl)[NMeA][dL][Dab][Cha][Val(3-OH)]SC[Dab][Aun]-OH; thioether N-14) | 0.0201
COc1ccc(C[C@@H]2NC(=O)[C@H](Cc3cccc(C)c3)NC(=O)[C@H](CC(=O)O)NC(=O)[C@H](Cc3ccc(C(=O)O)cc3)NC(=O)[C@H](CCN)NC(=O)CSC[C@@H](C(=O)N[C@@H](CCN)C(=O)NCCCCCCCCCCC(=O)O)NC(=O)[C@H](CO)NC(=O)[C@H](C(C)(C)O)NC(=O)[C@H](CC3CCCCC3)NC(=O)[C@H](CCN)NC(=O)[C@@H](CC(C)C)NC(=O)[C@H](C)N(C)C(=O)[C@H](Cc3ccc(OCC(=O)O)cc3)NC(=O)[C@H](Cc3ccc(-c4ccccc4)cc3)NC2=O)cc1 [Example 1291] ({CH2CO}-[Dab][Phe(4-COOH)]D[Phe(3-Me)]Y(Me)[Bip]Y(Carboxymethyl)[NMeA][dL][Dab][Cha][Val(3-OH)]SC[Dab][Aun]-OH; thioether N-14) | 0.0227

Continued, values first:

IC50 [µM] | Compound
0.0969 | Cc1cccc(C[C@@H]2NC(=O)[C@H](CC(=O)O)NC(=O)[C@H](Cc3ccc(C(=O)O)cc3)NC(=O)[C@H](CCN)NC(=O)CSC[C@@H](C(=O)N[C@@H](CCN)C(=O)NCCCCCCCCCCC(=O)O)NC(=O)[C@H](CO)NC(=O)[C@H](C(C)(C)O)NC(=O)[C@H](CC3CCCCC3)NC(=O)[C@H](CCN)NC(=O)[C@@H](CC(C)C)NC(=O)[C@H](C)N(C)C(=O)[C@H](Cc3ccc(OCC(=O)O)cc3)NC(=O)[C@H](Cc3ccc(-c4ccccc4)cc3)NC(=O)[C@H](c3ccccc3)NC2=O)c1 [Example 1292] ({CH2CO}-[Dab][Phe(4-COOH)]D[Phe(3-Me)][Phg][Bip]Y(Carboxymethyl)[NMeA][dL][Dab][Cha][Val(3-OH)]SC[Dab][Aun]-OH; thioether N-14)
0.0358 | Cc1cccc(C[C@@H]2NC(=O)[C@H](CC(=O)O)NC(=O)[C@H](Cc3ccc(C(=O)O)cc3)NC(=O)[C@H](CCN)NC(=O)CSC[C@@H](C(=O)N[C@@H](CCN)C(=O)NCCCCCCCCCCC(=O)O)NC(=O)[C@H](CO)NC(=O)[C@H](C(C)(C)O)NC(=O)[C@H](CC3CCCCC3)NC(=O)[C@H](CCN)NC(=O)[C@@H](CC(C)C)NC(=O)[C@H](C)N(C)C(=O)[C@H](Cc3ccc(OCC(=O)O)cc3)NC(=O)[C@H](Cc3ccc(-c4ccccc4)cc3)NC(=O)[C@H](Cc3ccc(O)c(Cl)c3)NC2=O)c1 [Example 1293] ({CH2CO}-[Dab][Phe(4-COOH)]D[Phe(3-Me)][Tyr(3-Cl)][Bip]Y(Carboxymethyl)[NMeA][dL][Dab][Cha][Val(3-OH)]SC[Dab][Aun]-OH; thioether N-14)
0.0116 | Cc1cccc(C[C@@H]2NC(=O)[C@H](CC(=O)O)NC(=O)[C@H](Cc3ccc(C(=O)O)cc3)NC(=O)[C@H](CCN)NC(=O)CSC[C@@H](C(=O)N[C@@H](CCN)C(=O)NCCCCCCCCCCC(=O)O)NC(=O)[C@H](CO)NC(=O)[C@H](C(C)(C)O)NC(=O)[C@H](CC3CCCCC3)NC(=O)[C@H](CCN)NC(=O)[C@@H](CC(C)C)NC(=O)[C@H](C)N(C)C(=O)[C@H](Cc3ccc(OCC(=O)O)cc3)NC(=O)[C@H](Cc3ccc(-c4ccccc4)cc3)NC(=O)[C@H](Cc3cccs3)NC2=O)c1 [Example 1294] ({CH2CO}-[Dab][Phe(4-COOH)]D[Phe(3-Me)][2Thi][Bip]Y(Carboxymethyl)[NMeA][dL][Dab][Cha][Val(3-OH)]SC[Dab][Aun]-OH; thioether N-14)
0.0112 | Cc1cccc(C[C@@H]2NC(=O)[C@H](CC(=O)O)NC(=O)[C@H](Cc3ccc(C(=O)O)cc3)NC(=O)[C@H](CCN)NC(=O)CSC[C@@H](C(=O)N[C@@H](CCN)C(=O)NCCCCCCCCCCC(=O)O)NC(=O)[C@H](CO)NC(=O)[C@H](C(C)(C)O)NC(=O)[C@H](CC3CCCCC3)NC(=O)[C@H](CCN)NC(=O)[C@@H](CC(C)C)NC(=O)[C@H](C)N(C)C(=O)[C@H](Cc3ccc(OCC(=O)O)cc3)NC(=O)[C@H](Cc3ccc(-c4ccccc4)cc3)NC(=O)[C@H](C3CC3)NC2=O)c1 [Example 1295] ({CH2CO}-[Dab][Phe(4-COOH)]D[Phe(3-Me)][Gly(cPr)][Bip]Y(Carboxymethyl)[NMeA][dL][Dab][Cha][Val(3-OH)]SC[Dab][Aun]-OH; thioether N-14)
